From patent US10894784B2, “Heteroarylbenzimidazole compounds” (BAYER PHARMA AKTIENGESELLSCHAFT, priority 2015, dated 2021)
pIC50: −log10 of the molar value. Where two headings read alike, the source gives them in different places.

Target: TBK1 (Homo sapiens (Human), UniProt Q9UHD2)
Test: TBK1 low ATP kinase assay (in vitro assay 1)
Assay type: biochemical
[1] = in vitro assay 1, read-out: TBK1 low ATP kinase assay IC50

Sequence of TBK1 (Q9UHD2 whole entry): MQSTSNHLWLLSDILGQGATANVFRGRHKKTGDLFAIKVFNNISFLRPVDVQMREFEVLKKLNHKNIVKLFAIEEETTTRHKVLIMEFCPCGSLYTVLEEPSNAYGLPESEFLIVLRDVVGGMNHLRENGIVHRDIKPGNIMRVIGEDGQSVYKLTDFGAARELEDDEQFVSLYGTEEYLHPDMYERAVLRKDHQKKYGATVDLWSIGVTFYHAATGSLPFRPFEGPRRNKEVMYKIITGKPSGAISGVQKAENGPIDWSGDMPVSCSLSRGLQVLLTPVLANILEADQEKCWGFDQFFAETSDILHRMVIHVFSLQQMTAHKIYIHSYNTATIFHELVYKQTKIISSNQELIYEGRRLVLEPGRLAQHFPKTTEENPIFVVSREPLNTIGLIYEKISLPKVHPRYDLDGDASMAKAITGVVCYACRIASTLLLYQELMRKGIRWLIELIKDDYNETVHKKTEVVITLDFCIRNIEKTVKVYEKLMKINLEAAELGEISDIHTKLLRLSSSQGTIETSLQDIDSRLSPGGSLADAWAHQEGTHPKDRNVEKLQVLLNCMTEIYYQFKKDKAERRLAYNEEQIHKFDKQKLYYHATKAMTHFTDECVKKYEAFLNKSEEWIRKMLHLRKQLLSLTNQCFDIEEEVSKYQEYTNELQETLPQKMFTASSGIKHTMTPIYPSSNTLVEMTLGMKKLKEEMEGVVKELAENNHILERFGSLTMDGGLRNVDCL

Compound | pIC50 [1] | pIC50 (TBK1 low ATP kinase assay IC50, in vitro assay 1)
Cc1nccc(-c2ccc3nc(Nc4cc(C(C)N5CCN(C(=O)CC(F)(F)F)CC5)ccn4)[nH]c3c2)n1 (single isomer, unassigned) [Example 24.05.01.A, 3,3,3-trifluoro-1-{4-[(1R or 1S)-1-(2-{[6-(2-methylpyrimidin-4-yl)-1H-benzimidazol-2-yl]amino}pyridin-4-yl)ethyl]piperazin-1-yl}propan-1-one] | 7.34 | –
O=C(C1CC1)N1CCN(Cc2ccnc(Nc3nc4ccc(-c5ccsc5Cl)cc4[nH]3)c2)CC1 [Example 175.03, {4-[(2-{[6-(2-chlorothiophen-3-yl)-1H-benzimidazol-2-yl]amino}pyridin-4-yl)methyl]piperazin-1-yl}(cyclopropyl)methanone] | 6.65 | –
Cc1ncc(-c2ccc3nc(Nc4cc(CN5CCN(C(=O)C6CC6)CC5)ccn4)[nH]c3c2)cn1 [Example 45.03.02, cyclopropyl{4-[(2-{[6-(2-methylpyrimidin-5-yl)-1H-benzimidazol-2-yl]amino}pyridin-4-yl)methyl]piperazin-1-yl}methanone] | 5.88 | –
Cc1cc(-c2ccc3nc(Nc4cc(C(C)N5CCN(C(=O)OC(C)(C)C)CC5)ccn4)[nH]c3c2)n(C)n1 (single isomer, unassigned) [Example 89.01, tert-butyl 4-[(1R or 1S)-1-(2-{[6-(1,3-dimethyl-1H-pyrazol-5-yl)-1H-benzimidazol-2-yl]amino}pyridin-4-yl)ethyl]piperazine-1-carboxylate] | 6.21 | –
CSc1ncc(-c2ccc3nc(Nc4cc(CN5CCN(C(=O)CC6CC6)CC5)ccn4)[nH]c3c2)cn1 [Example 45.05.02, 2-cyclopropyl-1-(4-{[2-({6-[2-(methylsulfanyl)pyrimidin-5-yl]-1H-benzimidazol-2-yl}amino)pyridin-4-yl]methyl}piperazin-1-yl)ethanone] | 5.99 | –
COc1cc(-c2ccc3nc(Nc4cc(C(C)N5CCN(C(=O)C6CC6)CC5)ccn4)[nH]c3c2)ncn1 (single isomer, unassigned) [Example 34.03.02.A, cyclopropyl{4-[(1R or 1S)-1-(2-{[6-(6-methoxypyrimidin-4-yl)-1H-benzimidazol-2-yl]amino}pyridin-4-yl)ethyl]piperazin-1-yl}methanone] | 7.33 | –
Cc1noc(-c2ccc3nc(Nc4cc(CN5CCN(C(=O)C(C)(C)O)CC5)ccn4)[nH]c3c2)n1 [Example 101.16, 2-hydroxy-2-methyl-1-{4-[(2-{[6-(3-methyl-1,2,4-oxadiazol-5-yl)-1H-benzimidazol-2-yl]amino}pyridin-4-yl)methyl]piperazin-1-yl}propan-1-one] | 6.72 | –
O=C(C1CC1)N1CCN(Cc2cc(Nc3nc4ccc(-c5ccncn5)cc4[nH]3)nc(C(F)(F)F)c2)CC1 [Example 23.03.01, cyclopropyl(4-{[2-{[6-(pyrimidin-4-yl)-1H-benzimidazol-2-yl]amino}-6-(trifluoromethyl)pyridin-4-yl]methyl}piperazin-1-yl)methanone] | 6.79 | –
Cc1noc(-c2ccc3nc(Nc4cc(CN5CCN(C(=O)CC(F)(F)F)CC5)ccn4)[nH]c3c2C)n1 [Example 54.01, 3,3,3-trifluoro-1-{4-[(2-{[7-methyl-6-(3-methyl-1,2,4-oxadiazol-5-yl)-1H-benzimidazol-2-yl]amino}pyridin-4-yl)methyl]piperazin-1-yl}propan-1-one] | 6.61 | –
Cc1noc(-c2ccc3nc(Nc4cc(C(C)N5CCN(C(=O)CC(F)(F)F)CC5)ccn4)[nH]c3c2)n1 (single isomer, unassigned) [Example 16.06.02.A, 3,3,3-trifluoro-1-{4-[(1R or 1S)-1-(2-{[6-(3-methyl-1,2,4-oxadiazol-5-yl)-1H-benzimidazol-2-yl]amino}pyridin-4-yl)ethyl]piperazin-1-yl}propan-1-one] | – | 6.98
Cc1noc(-c2ccc3nc(Nc4cc(C(C)N5CCN(C(=O)OC(C)(C)C)CC5)ccn4)[nH]c3c2)n1 (racemic) [Example 16.05.01, (rac)-tert-butyl 4-[1-(2-{[6-(3-methyl-1,2,4-oxadiazol-5-yl)-1H-benzimidazol-2-yl]amino}pyridin-4-yl)ethyl]piperazine-1-carboxylate] | 7.08 | –
Cc1ncc(C)c(-c2ccc3nc(Nc4cc(CN5CCN(C(=O)OC(C)(C)C)CC5)ccn4)[nH]c3c2)n1 [Example 33.01, tert-butyl 4-[(2-{[6-(2,5-dimethylpyrimidin-4-yl)-1H-benzimidazol-2-yl]amino}pyridin-4-yl)methyl]piperazine-1-carboxylate] | 5.45 | –
Cc1ncnc(-c2ccc3nc(Nc4cc(CN5CCN(C(=O)CC(F)(F)F)CC5)ccn4)[nH]c3c2)c1C [Example 32.02, 1-{4-[(2-{[6-(5,6-dimethylpyrimidin-4-yl)-1H-benzimidazol-2-yl]amino}pyridin-4-yl)methyl]piperazin-1-yl}-3,3,3-trifluoropropan-1-one] | 5.93 | –
O=C(C1CC1)N1CCN(Cc2ccnc(Nc3nc4ccc(-c5ccnc(C(F)(F)F)n5)cc4[nH]3)c2)CC1 [Example 27.01, cyclopropyl(4-{[2-({6-[2-(trifluoromethyl)pyrimidin-4-yl]-1H-benzimidazol-2-yl}amino)pyridin-4-yl]methyl}piperazin-1-yl)methanone] | 6.79 | –

Continued by rising pIC50 [1], values first:

pIC50 [1] | pIC50 (TBK1 low ATP kinase assay IC50, in vitro assay 1) | Compound
7.38 | – | O=C(CC(F)(F)F)N1CCN(Cc2ccnc(Nc3nc4ccc(-c5cc(C6CCOCC6)ncn5)cc4[nH]3)c2)CC1 [Example 199.02, 3,3,3-trifluoro-1-(4-{[2-({6-[6-(tetrahydro-2H-pyran-4-yl)pyrimidin-4-yl]-1H-benzimidazol-2-yl}amino)pyridin-4-yl]methyl}piperazin-1-yl)propan-1-one]
7.44 | – | COc1cnc(Cl)nc1-c1ccc2nc(Nc3cc(CN4CCN(C(=O)OC(C)(C)C)CC4)ccn3)[nH]c2c1 [Example 63.01.01, tert-butyl 4-[(2-{[6-(2-chloro-5-methoxypyrimidin-4-yl)-1H-benzimidazol-2-yl]amino}pyridin-4-yl)methyl]piperazine-1-carboxylate]
7.55 | – | COc1cnccc1-c1ccc2nc(Nc3cc(CN4CCN(C(=O)C(C)(C)O)CC4)ccn3)[nH]c2c1 [Example 04.09, 2-hydroxy-1-{4-[(2-{[6-(3-methoxypyridin-4-yl)-1H-benzimidazol-2-yl]amino}pyridin-4-yl)methyl]piperazin-1-yl}-2-methylpropan-1-one]
7.60 | – | CCN(C)c1cc(-c2ccc3nc(Nc4cc(CN5CCN(C(=O)OC(C)(C)C)CC5)ccn4)[nH]c3c2)ncn1 [Example 148.01, tert-butyl 4-({2-[(6-{6-[ethyl(methyl)amino]pyrimidin-4-yl}-1H-benzimidazol-2-yl)amino]pyridin-4-yl}methyl)piperazine-1-carboxylate]
7.86 | – | COc1cnccc1-c1ccc2nc(Nc3cc(CN4CCN(C(=O)C5CC5(F)F)CC4)ccn3)[nH]c2c1 (racemic) [Example 04.08, ((1RS)-2,2-difluorocyclopropyl){4-[(2-{[6-(3-methoxypyridin-4-yl)-1H-benzimidazol-2-yl]amino}pyridin-4-yl)methyl]piperazin-1-yl}methanone]
7.98 | – | COc1cncnc1-c1ccc2nc(Nc3cc(C(C)N4CCN(C(=O)C5CCC5)CC4)ccn3)[nH]c2c1 (racemic) [Example 35.02.04, (rac)-cyclobutyl{4-[1-(2-{[6-(5-methoxypyrimidin-4-yl)-1H-benzimidazol-2-yl]amino}pyridin-4-yl)ethyl]piperazin-1-yl}methanone]
8.19 | – | O=C(C1CC1)N1CCN(Cc2ccnc(Nc3nc4ccc(-c5cnn(CC(F)(F)F)c5)cc4[nH]3)c2)CC1 [Example 58.01.03, cyclopropyl(4-{[2-({6-[1-(2,2,2-trifluoroethyl)-1H-pyrazol-4-yl]-1H-benzimidazol-2-yl}amino)pyridin-4-yl]methyl}piperazin-1-yl)methanone]
8.23 | – | COc1c(-c2ccc3nc(Nc4cc(C(C)N5CCN(C(=O)C6CC6)CC5)ccn4)[nH]c3c2)ncnc1N(C)C (single isomer, unassigned) [Example 107.02.02, cyclopropyl(4-{(1R or 1S)-1-[2-({6-[6-(dimethylamino)-5-methoxypyrimidin-4-yl]-1H-benzimidazol-2-yl}amino)pyridin-4-yl]ethyl}piperazin-1-yl)methanone]
8.27 | – | COc1c(NCC2CC2)ncnc1-c1ccc2nc(Nc3cc(CN4CCN(C(=O)CC(F)(F)F)CC4)ccn3)[nH]c2c1 [Example 109.01.02, 1-[4-({2-[(6-{6-[(cyclopropylmethyl)amino]-5-methoxypyrimidin-4-yl}-1H-benzimidazol-2-yl)amino]pyridin-4-yl}methyl)piperazin-1-yl]-3,3,3-trifluoropropan-1-one]
8.48 | – | CC(c1ccnc(Nc2nc3ccc(-c4cc(N5CCOCC5)ncn4)cc3[nH]2)c1)N1CCN(C(=O)C2CC2)CC1 (single isomer, unassigned) [Example 118.02, cyclopropyl(4-{(1R or 1S)-1-[2-({6-[6-(morpholin-4-yl)pyrimidin-4-yl]-1H-benzimidazol-2-yl}amino)pyridin-4-yl]ethyl}piperazin-1-yl)methanone]
8.51 | – | Cc1cc(-c2ccc3nc(Nc4cc(C(C)N5CCN(C(=O)C6CC6)CC5)ccn4)[nH]c3c2)ncn1 (single isomer, unassigned) [Example 30.03.03.A, cyclopropyl{4-[(1R or 1S)-1-(2-{[6-(6-methylpyrimidin-4-yl)-1H-benzimidazol-2-yl]amino}pyridin-4-yl)ethyl]piperazin-1-yl}methanone]
8.85 | – | CC(c1ccnc(Nc2nc3ccc(-c4cc(N5CCOCC5)ncn4)cc3[nH]2)c1)N1CCN(C(=O)CC(F)(F)F)CC1 (single isomer, unassigned) [Example 118.03, 3,3,3-trifluoro-1-(4-{(1R or 1S)-1-[2-({6-[6-(morpholin-4-yl)pyrimidin-4-yl]-1H-benzimidazol-2-yl}amino)pyridin-4-yl]ethyl}piperazin-1-yl)propan-1-one]
9.03 | – | CC(c1ccnc(Nc2nc3ccc(-c4cc(N5CC(C(F)(F)F)C5)ncn4)cc3[nH]2)c1)N1CCN(C(=O)CC(F)(F)F)CC1 (single isomer, unassigned) [Example 164.02, 3,3,3-trifluoro-1-{4-[(1R or 1S)-1-{2-[(6-{6-[3-(trifluoromethyl)azetidin-1-yl]pyrimidin-4-yl}-1H-benzimidazol-2-yl)amino]pyridin-4-yl}ethyl]piperazin-1-yl}propan-1-one]
